According to ChEMBL document CHEMBL1909046, “DrugMatrix in vitro pharmacology data”:
Where a SMILES comes first, the peptide text is derived from it. Bridges are numbered along the chain shown (N, C = ends). [ ]: non-standard residue; d: D form. The star is where a group is joined. Threoninol(2S,3R) = C[C@@H](O)[C@H](CO)N*

Tests used:
[1] = biological target: T1, 5-hydroxytryptamine receptor 2C (Homo sapiens, UniProt P28335); test: DRUGMATRIX: Serotonin (5-Hydroxytryptamine) 5-HT2C radioligand binding (ligand: [3H] Mesulergine); assay type: cell membranes, CHO-K1, Membrane; conditions: cho-k1; Not Active = under 50% inhibition at 10 µM
T1 sequence (P28335 whole entry): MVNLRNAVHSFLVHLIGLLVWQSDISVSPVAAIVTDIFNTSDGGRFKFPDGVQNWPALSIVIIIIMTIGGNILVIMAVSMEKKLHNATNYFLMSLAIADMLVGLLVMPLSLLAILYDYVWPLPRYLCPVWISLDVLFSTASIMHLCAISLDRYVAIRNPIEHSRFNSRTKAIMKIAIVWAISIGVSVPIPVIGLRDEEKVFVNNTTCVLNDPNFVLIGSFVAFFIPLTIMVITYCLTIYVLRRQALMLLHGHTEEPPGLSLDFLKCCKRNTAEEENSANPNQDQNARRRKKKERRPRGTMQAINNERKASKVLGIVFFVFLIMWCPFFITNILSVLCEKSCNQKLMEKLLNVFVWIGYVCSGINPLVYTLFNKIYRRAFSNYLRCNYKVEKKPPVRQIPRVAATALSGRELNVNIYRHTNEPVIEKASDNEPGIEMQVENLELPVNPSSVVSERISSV

[2] = biological target: T2, C-X-C chemokine receptor type 1 (Homo sapiens, UniProt P25024); further: in other assays of this panel Not Active means under 50% inhibition at 10 µM
T2 sequence (P25024 whole entry): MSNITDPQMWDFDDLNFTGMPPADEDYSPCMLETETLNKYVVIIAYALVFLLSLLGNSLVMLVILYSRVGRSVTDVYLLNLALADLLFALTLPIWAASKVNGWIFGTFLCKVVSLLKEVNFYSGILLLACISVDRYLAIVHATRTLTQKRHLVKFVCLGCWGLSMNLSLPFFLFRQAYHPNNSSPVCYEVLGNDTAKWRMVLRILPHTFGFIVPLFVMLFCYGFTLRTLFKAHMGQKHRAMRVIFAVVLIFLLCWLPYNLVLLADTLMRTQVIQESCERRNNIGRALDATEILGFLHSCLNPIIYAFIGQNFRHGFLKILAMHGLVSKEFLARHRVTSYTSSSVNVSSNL

[3] = biological target: Prostaglandin G/H synthase 1 (Homo sapiens, UniProt P23219); test: biochemical; assay type: tissue-based, Platelet; conditions: platelet;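 further: inhibition of COX-1 enzyme activity, with arachidonic acid supplied as substrate; in other assays of this panel Not Active means under 50% inhibition at 10 µM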
Chain of Prostaglandin G/H synthase 1 (P23219 whole entry): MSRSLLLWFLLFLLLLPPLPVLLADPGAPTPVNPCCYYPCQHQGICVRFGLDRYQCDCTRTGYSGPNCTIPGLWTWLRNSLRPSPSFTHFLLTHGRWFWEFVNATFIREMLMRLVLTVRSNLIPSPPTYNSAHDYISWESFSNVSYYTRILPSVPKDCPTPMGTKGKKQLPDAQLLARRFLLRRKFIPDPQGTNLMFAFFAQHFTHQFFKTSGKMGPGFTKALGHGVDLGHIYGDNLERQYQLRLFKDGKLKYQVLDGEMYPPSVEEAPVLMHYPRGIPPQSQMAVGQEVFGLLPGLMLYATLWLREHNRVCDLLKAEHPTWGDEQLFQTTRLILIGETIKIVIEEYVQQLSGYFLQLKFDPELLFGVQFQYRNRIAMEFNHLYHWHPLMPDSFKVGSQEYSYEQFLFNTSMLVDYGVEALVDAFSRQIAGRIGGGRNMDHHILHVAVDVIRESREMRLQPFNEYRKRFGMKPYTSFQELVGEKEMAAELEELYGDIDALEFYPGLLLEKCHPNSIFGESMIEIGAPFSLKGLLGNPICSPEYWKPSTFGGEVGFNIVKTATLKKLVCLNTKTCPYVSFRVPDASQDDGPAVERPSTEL

[4] = biological target: T3, Muscarinic acetylcholine receptor M4 (Homo sapiens, UniProt P08173); assay type: cell membranes, CHO-K1, Membrane; further: in other assays of this panel Not Active means under 50% inhibition at 10 µM
T3 sequence (P08173 whole entry): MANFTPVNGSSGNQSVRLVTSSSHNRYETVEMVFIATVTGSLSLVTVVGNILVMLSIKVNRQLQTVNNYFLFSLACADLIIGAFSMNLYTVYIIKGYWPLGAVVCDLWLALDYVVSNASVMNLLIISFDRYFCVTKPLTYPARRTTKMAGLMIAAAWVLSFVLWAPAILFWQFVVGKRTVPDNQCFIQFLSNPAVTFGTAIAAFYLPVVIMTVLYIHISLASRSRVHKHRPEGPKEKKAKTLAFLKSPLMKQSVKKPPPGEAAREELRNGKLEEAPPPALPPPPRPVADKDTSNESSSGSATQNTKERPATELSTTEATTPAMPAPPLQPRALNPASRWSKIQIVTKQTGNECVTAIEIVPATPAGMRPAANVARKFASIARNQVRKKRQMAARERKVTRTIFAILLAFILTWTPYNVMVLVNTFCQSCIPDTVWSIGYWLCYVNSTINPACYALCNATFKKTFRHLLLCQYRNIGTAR

Acetylcholinesterase = Acetylcholinesterase (Homo sapiens, UniProt P22303); test: DRUGMATRIX: Acetylcholinesterase enzyme inhibition (substrate: acetylthiocholine); assay type: cell-based, HEK293; conditions: Not Active = under 50% inhibition at 10 µM
Chain of Acetylcholinesterase (P22303 whole entry): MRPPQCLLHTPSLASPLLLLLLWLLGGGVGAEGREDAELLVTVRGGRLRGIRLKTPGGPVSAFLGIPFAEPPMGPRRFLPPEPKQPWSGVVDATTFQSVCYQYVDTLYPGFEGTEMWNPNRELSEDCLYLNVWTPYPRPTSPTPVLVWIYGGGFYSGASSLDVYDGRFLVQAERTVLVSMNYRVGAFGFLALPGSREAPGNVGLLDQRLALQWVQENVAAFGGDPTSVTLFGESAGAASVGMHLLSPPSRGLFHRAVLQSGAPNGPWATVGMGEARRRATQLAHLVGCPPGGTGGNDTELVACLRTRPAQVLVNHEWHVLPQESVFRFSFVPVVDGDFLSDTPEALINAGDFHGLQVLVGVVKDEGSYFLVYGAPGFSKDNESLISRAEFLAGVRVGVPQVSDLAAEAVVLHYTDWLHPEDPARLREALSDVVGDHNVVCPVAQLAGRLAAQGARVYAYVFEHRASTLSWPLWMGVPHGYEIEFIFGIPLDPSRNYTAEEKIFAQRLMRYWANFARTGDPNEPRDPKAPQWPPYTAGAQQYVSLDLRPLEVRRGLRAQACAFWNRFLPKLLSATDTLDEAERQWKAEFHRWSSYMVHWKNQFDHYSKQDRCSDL

Cytochrome P450 2D6 = Cytochrome P450 2D6 (Homo sapiens, UniProt P10635); conditions: bti-tn-5b1-4; further: in other assays of this panel Not Active means under 50% inhibition at 10 µM
Chain of Cytochrome P450 2D6 (P10635 whole entry): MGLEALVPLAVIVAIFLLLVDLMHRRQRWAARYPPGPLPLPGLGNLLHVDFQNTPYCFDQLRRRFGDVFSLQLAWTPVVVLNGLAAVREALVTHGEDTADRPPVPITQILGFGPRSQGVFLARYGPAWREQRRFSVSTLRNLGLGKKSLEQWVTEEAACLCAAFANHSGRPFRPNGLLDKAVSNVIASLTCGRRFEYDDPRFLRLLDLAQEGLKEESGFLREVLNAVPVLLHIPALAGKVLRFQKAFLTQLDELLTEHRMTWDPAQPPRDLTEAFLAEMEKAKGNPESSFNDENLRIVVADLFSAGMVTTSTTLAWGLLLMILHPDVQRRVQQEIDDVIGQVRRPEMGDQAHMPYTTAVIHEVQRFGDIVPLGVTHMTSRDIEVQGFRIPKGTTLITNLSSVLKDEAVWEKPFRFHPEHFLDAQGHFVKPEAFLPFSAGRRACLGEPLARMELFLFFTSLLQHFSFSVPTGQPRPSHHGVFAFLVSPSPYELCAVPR

Estrogen receptor = biological target: T4, Estrogen receptor (Homo sapiens, UniProt P03372); conditions: sf9; further: in other assays of this panel Not Active means under 50% inhibition at 10 µM
T4 sequence (P03372 whole entry): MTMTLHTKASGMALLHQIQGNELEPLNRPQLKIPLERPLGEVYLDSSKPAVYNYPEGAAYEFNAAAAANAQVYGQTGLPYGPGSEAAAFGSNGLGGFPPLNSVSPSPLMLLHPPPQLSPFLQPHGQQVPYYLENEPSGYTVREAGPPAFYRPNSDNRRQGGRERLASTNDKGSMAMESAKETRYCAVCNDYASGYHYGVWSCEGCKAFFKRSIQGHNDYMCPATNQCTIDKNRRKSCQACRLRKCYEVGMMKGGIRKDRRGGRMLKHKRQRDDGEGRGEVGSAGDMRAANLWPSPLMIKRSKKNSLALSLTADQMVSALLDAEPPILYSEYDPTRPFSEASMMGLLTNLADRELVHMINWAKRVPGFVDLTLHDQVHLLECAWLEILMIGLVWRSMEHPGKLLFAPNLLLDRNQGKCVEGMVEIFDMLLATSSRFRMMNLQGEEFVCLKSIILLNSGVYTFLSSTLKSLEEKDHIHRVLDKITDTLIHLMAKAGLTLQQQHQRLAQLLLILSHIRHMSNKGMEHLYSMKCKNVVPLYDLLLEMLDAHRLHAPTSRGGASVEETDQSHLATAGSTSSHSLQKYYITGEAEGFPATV

| Structure (SMILES) | IC50 [1] | IC50 [2] | IC50 [3] | IC50 ([4]; cho-k1) | IC50 (Acetylcholinesterase; hek293) | IC50 (Cytochrome P450 2D6) | Ki (Cytochrome P450 2D6) | IC50 (Estrogen receptor) | Ki [1] | Ki [2] | Ki [3] | Ki ([4]; cho-k1) | Ki (Acetylcholinesterase; hek293) | Ki (Estrogen receptor) | IC50 ([4]; read-out: IC50) | Ki ([4]; read-out: Ki) | IC50 (Acetylcholinesterase; read-out: IC50) |
| --- | --- | --- | --- | --- | --- | --- | --- | --- | --- | --- | --- | --- | --- | --- | --- | --- | --- |
| COc1ccccc1C(=O)N1CCC(Cc2ccccc2)CC1 | Not Active | Not Active | Not Active | Not Active | Not Active | Not Active | Not Active | Not Active | – | – | – | – | – | – | – | – | – |
| Cc1ccccc1C(=O)N1CCC(Cc2ccccc2)CC1 | Not Active | Not Active | Not Active | Not Active | Not Active | Not Active | Not Active | Not Active | – | – | – | – | – | – | – | – | – |
| C[C@@H](O)[C@H](CO)NC(=O)[C@@H]1CSSC[C@H](NC(=O)[C@H](N)Cc2ccccc2)C(=O)N[C@@H](Cc2ccccc2)C(=O)N[C@H](Cc2c[nH]c3ccccc23)C(=O)N[C@@H](CCCCN)C(=O)N[C@@H]([C@@H](C)O)C(=O)N1 (H-[dF]CF[dW]KTC-{Threoninol(2S,3R)}; disulfide 2-7) | Not Active | Not Active | Not Active | Not Active | Not Active | Not Active | Not Active | Not Active | – | – | – | – | – | – | – | – | – |
| S=C=Nc1cccc2ccccc12 [1-NAPHTHYLISOTHIOCYANATE] | Not Active | Not Active | Not Active | Not Active | Not Active | Not Active | Not Active | Not Active | – | – | – | – | – | – | – | – | – |
| C[C@](O)(CS(=O)(=O)c1ccc(F)cc1)C(=O)Nc1ccc(C#N)c(C(F)(F)F)c1 [(R)-BICALUTAMIDE] | Not Active | Not Active | Not Active | Not Active | Not Active | Not Active | Not Active | Not Active | – | – | – | – | – | – | – | – | – |
| CCCC(=O)Nc1ccc(OCC(O)CNC(C)C)c(C(C)=O)c1 (stereo not given) [ACEBUTOLOL] | Not Active | Not Active | Not Active | Not Active | Not Active | Not Active | Not Active | Not Active | – | – | – | – | – | – | – | – | – |
| COc1cc2c(c3oc(=O)c4c(c13)CCC4=O)[C@@H]1C=CO[C@@H]1O2 [AFLATOXIN] | Not Active | Not Active | Not Active | Not Active | Not Active | Not Active | Not Active | Not Active | Not Active | Not Active | Not Active | Not Active | Not Active | Not Active | – | – | – |
| N=C(N)NC(=O)c1nc(Cl)c(N)nc1N [AMILORIDE] | Not Active | Not Active | Not Active | Not Active | Not Active | Not Active | Not Active | Not Active | – | – | – | – | – | – | – | – | – |
| Cc1cc(=O)n(-c2ccccc2)n1C [ANTIPYRINE] | Not Active | Not Active | Not Active | Not Active | Not Active | Not Active | Not Active | Not Active | – | – | – | – | – | – | – | – | – |
| CN1C(=O)COc2c(C(=O)NC3CN4CCC3CC4)cc(Cl)cc21 (stereo not given) [AZASETRON] | Not Active | Not Active | Not Active | Not Active | Not Active | Not Active | Not Active | Not Active | – | – | – | – | – | – | – | – | – |
| C[C@H]1C[C@H]2[C@@H]3CCC4=CC(=O)C=C[C@]4(C)[C@@]3(Cl)[C@@H](O)C[C@]2(C)[C@@]1(O)C(=O)CO [BECLOMETHASONE] | Not Active | Not Active | Not Active | Not Active | Not Active | Not Active | Not Active | Not Active | – | – | – | – | – | – | – | – | – |
| CCCCN1CCCCC1C(=O)Nc1c(C)cccc1C.Cl (stereo not given) [BUPIVACAINE HYDROCHLORIDE] | Not Active | Not Active | Not Active | Not Active | Not Active | – | – | Not Active | – | – | – | – | – | – | – | – | – |
| C[C@@]12C(=O)OC(=O)[C@]1(C)[C@H]1CC[C@@H]2O1 [CANTHARIDIN] | Not Active | Not Active | Not Active | Not Active | Not Active | Not Active | Not Active | Not Active | – | – | – | – | – | – | – | – | – |
| O=NN(CCCl)C(=O)NCCCl [CARMUSTINE] | Not Active | Not Active | Not Active | Not Active | Not Active | – | – | Not Active | – | – | – | – | – | – | – | – | – |
| CC1=C(C(=O)O)N2C(=O)[C@@H](NC(=O)[C@H](N)c3ccccc3)[C@H]2SC1 [CEPHALEXIN ANHYDROUS] | Not Active | Not Active | Not Active | Not Active | Not Active | – | – | Not Active | – | – | – | – | – | – | – | – | – |
| O=C(N[C@H](CO)[C@H](O)c1ccc([N+](=O)[O-])cc1)C(Cl)Cl [CHLORAMPHENICOL] | Not Active | Not Active | Not Active | Not Active | Not Active | – | – | Not Active | – | – | – | – | – | – | – | – | – |
| C=C1CC[C@H](O)C/C1=C/C=C1\CCC[C@]2(C)[C@@H]([C@H](C)CCCC(C)C)CC[C@@H]12 [CHOLECALCIFEROL] | Not Active | Not Active | Not Active | Not Active | Not Active | Not Active | Not Active | Not Active | – | – | – | – | – | – | – | – | – |
| CCOC(=O)C(C)(C)Oc1ccc(Cl)cc1 [CLOFIBRATE] | Not Active | Not Active | Not Active | Not Active | Not Active | – | – | Not Active | – | – | – | – | – | – | – | – | – |
| C/C=C/C[C@@H](C)[C@@H](O)[C@H]1C(=O)N[C@@H](CC)C(=O)N(C)CC(=O)N(C)[C@@H](CC(C)C)C(=O)N[C@@H](C(C)C)C(=O)N(C)[C@@H](CC(C)C)C(=O)N[C@@H](C)C(=O)N[C@H](C)C(=O)N(C)[C@@H](CC(C)C)C(=O)N(C)[C@@H](CC(C)C)C(=O)N(C)[C@@H](C(C)C)C(=O)N1C [CYCLOSPORINE] | Not Active | Not Active | Not Active | Not Active | Not Active | – | – | Not Active | – | – | – | – | – | – | – | – | – |
| CN(C)c1ccc(C(=C2C=CC(=[N+](C)C)C=C2)c2ccc(N(C)C)cc2)cc1.[Cl-] [GENTIAN VIOLET] | Not Active | Not Active | Not Active | – | – | – | – | Not Active | – | – | – | – | – | – | 1010 nM | 140 nM | 5850 nM |
| COC(=O)C1=C(C)NC(C)=C(C(=O)OCC(C)C)C1c1ccccc1[N+](=O)[O-] (stereo not given) [NISOLDIPINE] | Not Active | Not Active | Not Active | Not Active | Not Active | – | – | Not Active | – | – | – | – | – | – | – | – | – |
| CCn1cc(C(=O)O)c(=O)c2cc(F)c(N3CCN(C)CC3)cc21 [PEFLOXACIN] | Not Active | Not Active | Not Active | Not Active | Not Active | – | – | Not Active | – | – | – | – | – | – | – | – | – |
